Assay results reported in US6319702A, “Nucleic acids encoding mutant human carboxypeptidase A enzymes” (Glaxo Wellcome, Inc., priority 1993, dated 2001).
Where two headings read alike, the source gives them in different places.

Legend:
[1] = biological target: T1, wild type human carboxypeptidase A1 (Homo sapiens, UniProt P15085); assay: Enzyme kinetics of prodrugs with wild type human carboxypeptidase A1 (coupled assay); assay type: biochemical
T1 sequence (P15085 111-419): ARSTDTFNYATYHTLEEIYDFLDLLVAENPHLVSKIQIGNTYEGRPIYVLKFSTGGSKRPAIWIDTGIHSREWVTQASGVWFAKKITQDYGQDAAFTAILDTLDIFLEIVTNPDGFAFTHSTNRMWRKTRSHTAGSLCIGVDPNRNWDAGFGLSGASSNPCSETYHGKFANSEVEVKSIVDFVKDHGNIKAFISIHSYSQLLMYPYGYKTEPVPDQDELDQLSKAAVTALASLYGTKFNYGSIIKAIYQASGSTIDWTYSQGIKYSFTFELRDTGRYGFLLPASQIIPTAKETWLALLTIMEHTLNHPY
Excerpt: (§1) As indicated herein, the in vivo stable prodrug of the present invention should be a better substrate for a mutant enzyme than the corresponding wild type enzyme in order for the stable prodrug to be activated selectively at the tumour. […] The most relevant kinetic constant in the table is the kcat/Km, which provides an estimate of the second order rate constant for the enzyme catalyzed conversion of prodrug to methotrexate. Thus, the larger the kcat/Km, the more efficient the enzyme with a particular substrate. […] Thus, the single mutation at 268 from thr to gly converted very poor substrates in the wild type enzyme to excellent substrates in the mutant enzyme. […] Thus, the compounds are much better substrates for the mutant enzyme than the wild type enzyme which permits very specific tumor targeted activation of the nontoxic, stable prodrug to the active agent.
(§2) Kinetics were determined by a modification of the coupled assay of Kuefner, et al (1989) Biochemistry 28 2288-2297 in which the product MTX is converted by excess carboxypeptidase G to the pteroate of MTX. In this assay the reaction is followed spectrophotometrically at 315 nm; at this wavelength the change in molar absorbtivity for the coupled reaction was determined to be 9.57 mM^-1 cm^-1. Assays were performed at 25° C. in 25 mM tris-HCl, 100 mM NaCl, pH 7.4. Prodrugs were preincubated at 25° C. with buffer and 17 milliunits of Sigma #C-9658 carboxypeptidase G in 1 ml total volume. Assay was initiated with carboxypeptidase A or the appropriate mutant. Initial velocities were obtained, and standard Michaelis-Menten calculations were used to determine kinetic constants (in Biochemistry, Lehninger, A. L. 1970, Worth Publishers, Inc, NY).

268ala = assay: Enzyme kinetics of prodrugs with 268ala mutant of human CPA1 (coupled assay); assay type: biochemical; conditions: 25° C., pH 7.4
Excerpt: as §1, §2

268gly = assay: Enzyme kinetics of prodrugs with 268gly mutant of human CPA1 (coupled assay); assay type: biochemical; conditions: 268gly; 25° C., pH 7.4
Excerpt: as §1, §2

in vivo = conditions: mouse, iv
[2] = Stability and biodistribution of prodrugs in vivo (HPLC of plasma and tissues); parameters: species or system mice (CD-1 nude; BALB/C where indicated); conditions: for concentration of prodrug in cecum / concentration of prodrug in feces / concentration of prodrug in kidney / concentration of prodrug in large intestine / concentration of prodrug in liver / concentration of prodrug in small intestine / concentration of prodrug in spleen / concentration of prodrug in tumor / remaining at 0.5 h / remaining at 2 h / concentration at 0.5 h: 50 mg/kg i.p. or i.v., CD-1 nude mice; for stability in vivo (in words): mice; for stability in vivo (in words) / remaining at 0.5 h / remaining at 2 h / concentration at 0.5 h: 50 mg/kg; for remaining at 0.5 h / remaining at 2 h / concentration at 0.5 h: mouse; for concentration at 0.5 h: read-out: concentration of prodrug in plasma
mutant enzyme = assay: Substrate behaviour with mutant enzyme; assay type: biochemical, human
Excerpt: This type of compound is not useful for ADEPT.

[3] = cecum, CECUM, 30 min, read-out: stability: percentage of material observed as intact prodrug, cecum
[4] = cecum, CECUM, 120 min, read-out: stability: percentage of material observed as intact prodrug, cecum
[5] = feces, FECES, 30 min, read-out: stability: percentage of material observed as intact prodrug, feces (converted)
[6] = feces, FECES, 120 min, read-out: stability: percentage of material observed as intact prodrug, feces
[7] = kidney, KIDNEY, 30 min, read-out: stability: percentage of material observed as intact prodrug, kidney
[8] = large intestine, LARGE INTESTINE, 30 min, read-out: stability: percentage of material observed as intact prodrug, large intestine
[9] = large intestine, LARGE INTESTINE, 120 min, read-out: stability: percentage of material observed as intact prodrug, large intestine
[10] = liver, LIVER, 30 min, read-out: stability: percentage of material observed as intact prodrug, liver (converted)
[11] = liver, LIVER, 120 min, read-out: stability: percentage of material observed as intact prodrug, liver
[12] = plasma, PLASMA, 30 min, read-out: stability: percentage of material observed as intact prodrug, plasma
[13] = small intestine, SMALL INTESTINE, 30 min, read-out: stability: percentage of material observed as intact prodrug, small intestine
[14] = small intestine, SMALL INTESTINE, 120 min, read-out: stability: percentage of material observed as intact prodrug, small intestine
[15] = spleen, SPLEEN, 30 min, read-out: stability: percentage of material observed as intact prodrug, spleen

For `CN(Cc1cnc2nc(N)nc(N)c2n1)c1ccc(C(=O)N[C@@H](CCC(=O)O)C(=O)N[C@@H](Cc2cccc(C3CCCC3)c2)C(=O)O)cc1`, the “kcat (symbol ND)” value ([1]; Human CPA1, rate too slow to assay) was “ND (not determined; rate to slow assay. kcat ≤ 0.0005/sec.)”, the Km (268ala) was 31 µM and the kcat (268ala) was 0.001 s⁻¹. For the same molecule, the Km (268gly) was 15 µM, the kcat (268gly) was 1.4 s⁻¹ and the MTD (in vivo) was greater than 40 mg/kg. The NOAEL (in vivo) was no less than 40 mg/kg.
In the case of `CN(Cc1cnc2nc(N)nc(N)c2n1)c1ccc(C(=O)N[C@@H](CCC(=O)O)C(=O)N[C@@H](Cc2cccc(C3CCC3)c2)C(=O)O)cc1` [Prodrug 11], the “concentration of prodrug in cecum” value ([2]; CECUM, 30 min) is reported as 4.5 nmol/g, the “concentration of prodrug in cecum” value ([2]; CECUM, 120 min) is reported as 0.8 nmol/g and the “concentration of prodrug in feces” value ([2]; FECES, 30 min) is reported as 426.8 nmol/g. The “concentration of prodrug in feces” value ([2]; FECES, 120 min) was 389.8 nmol/g, the “concentration of prodrug in kidney” value ([2]; KIDNEY, 30 min) was 7.3 nmol/g and the “concentration of prodrug in kidney” value ([2]; KIDNEY, 120 min) was 3.0 nmol/g. The “concentration of prodrug in large intestine” value ([2]; LARGE INTESTINE, 30 min) was 2.7 nmol/g, the “concentration of prodrug in large intestine” value ([2]; LARGE INTESTINE, 120 min) was 4.4 nmol/g and the “concentration of prodrug in liver” value ([2]; LIVER, 30 min) was 53.8 nmol/g. The “concentration of prodrug in liver” value ([2]; LIVER, 120 min) was 47.8 nmol/g, the “concentration of prodrug in small intestine” value ([2]; SMALL INTESTINE, 30 min) was 301.3 nmol/g and the “concentration of prodrug in small intestine” value ([2]; SMALL INTESTINE, 120 min) was 140.0 nmol/g. For the same molecule, the “concentration of prodrug in spleen” value ([2]; SPLEEN, 30 min) was 2.7 nmol/g, the “concentration of prodrug in tumor” value ([2]; TUMOR, 30 min) was 4.8 nmol/g and the “concentration of prodrug in tumor” value ([2]; TUMOR, 120 min) was 2.4 nmol/g. For the same molecule, the “stability in vivo (in words)” value [2] was “stable in vivo”, the remaining at 0.5 h [2, 3] was 100% and the remaining at 2 h [2, 4] was 100%. The remaining at 0.5 h [2, 5] was 92.3%, the remaining at 2 h [2, 6] was 67.9% and the remaining at 0.5 h [2, 7] was 83.5%. It also gave a remaining at 2 h ([2]; kidney, KIDNEY, 120 min, read-out: stability: percentage of material observed as intact prodrug, kidney) of 82.3%, a remaining at 0.5 h [2, 8] of 74.5% and a remaining at 2 h [2, 9] of 85%. It also gave a remaining at 0.5 h [2, 10] of 81.3%, a remaining at 2 h [2, 11] of 73.3% and a concentration at 0.5 h ([2]; plasma, PLASMA, 30 min) of 22.2 µM. The remaining at 0.5 h [2, 12] was 97.1%, the remaining at 0.5 h [2, 13] was 86.7% and the remaining at 2 h [2, 14] was 67.7%. For the same molecule, the remaining at 0.5 h [2, 15] was 96.5%, the remaining at 0.5 h ([2]; tumor, TUMOR, 30 min, read-out: stability: percentage of material observed as intact prodrug, tumor) was 100% and the remaining at 2 h ([2]; tumor, TUMOR, 120 min, read-out: stability: percentage of material observed as intact prodrug, tumor) was 88.1%. For the same molecule, the “substrate for wild type CPA (in words)” value [1] was “not for the wild type enzyme” and the “substrate for a mutant enzyme (in words)” value (mutant enzyme) was “good substrates for a mutant enzyme”.
In the case of `Nc1nc(N)c(CCCNc2ccc(C(=O)N[C@@H](CCC(=O)O)C(=O)N[C@@H](Cc3cccc(C4CCCC4)c3)C(=O)O)cc2)c(=O)[nH]1` [Prodrug 14, N-(4-((3(2,4-diamino-1,6-dihydro-6-oxo-5-pyrimidinyl)propyl)amino)benzoyl)-L-glutam-1-yl-3-cyclopentyl-L-phenylalanine], the “concentration of prodrug in cecum” value ([2]; CECUM, 30 min) is reported as 4.l, the “concentration of prodrug in cecum” value ([2]; CECUM, 120 min) is reported as 65.3 nmol/g and the “concentration of prodrug in feces” value ([2]; FECES, 30 min) is reported as 535.0 nmol/g. The “concentration of prodrug in feces” value ([2]; FECES, 120 min) was 932.8 nmol/g, the “concentration of prodrug in kidney” value ([2]; KIDNEY, 30 min) was 4.6 nmol/g and the “concentration of prodrug in large intestine” value ([2]; LARGE INTESTINE, 30 min) was 9.4 nmol/g. The “concentration of prodrug in large intestine” value ([2]; LARGE INTESTINE, 120 min) was 34.6 nmol/g, the “concentration of prodrug in liver” value ([2]; LIVER, 30 min) was 22.5 nmol/g and the “concentration of prodrug in liver” value ([2]; LIVER, 120 min) was 42.1 nmol/g. The “concentration of prodrug in small intestine” value ([2]; SMALL INTESTINE, 30 min) was 218.3 nmol/g, the “concentration of prodrug in small intestine” value ([2]; SMALL INTESTINE, 120 min) was 127.8 nmol/g and the “concentration of prodrug in spleen” value ([2]; SPLEEN, 30 min) was 2.4 nmol/g. For the same molecule, the “stability in vivo (in words)” value [2] was “stable in vivo”, the remaining at 0.5 h [2, 3] was 100% and the remaining at 2 h [2, 4] was 48.8%. For the same molecule, the remaining at 0.5 h [2, 5] was 90.7%, the remaining at 2 h [2, 6] was 88% and the remaining at 0.5 h [2, 7] was 100%. For the same molecule, the remaining at 0.5 h [2, 8] was 100%, the remaining at 2 h [2, 9] was 76.8% and the remaining at 0.5 h [2, 10] was 100%. It also gave a remaining at 2 h [2, 11] of 100%, a concentration at 0.5 h ([2]; plasma, PLASMA, 30 min) of 1.1 µM and a remaining at 0.5 h [2, 12] of 100%. For the same molecule, the remaining at 0.5 h [2, 13] was 100%, the remaining at 2 h [2, 14] was 100% and the remaining at 0.5 h [2, 15] was 100%. For the same molecule, the “substrate for wild type CPA (in words)” value [1] was “not for the wild type enzyme” and the “substrate for a mutant enzyme (in words)” value (mutant enzyme) was “good substrates for a mutant enzyme”.
